According to patent US9090571B2, “Meglumine salt of 6-fluoro-3-hydroxy-2-pyrazine carboxamide” (TOYAMA CHEMICAL CO., LTD., priority 2010, dated 2015):

Assay: Solubility in water (statement)
Assay type: physicochemical

Row | SMILES | solubility in water
1 | NC(=O)c1nc(F)c[nH]c1=O [Compound A, 6-fluoro-3-hydroxy-2-pyrazinecarboxamide] | low solubility in water
2 | CNC[C@H](O)[C@@H](O)[C@H](O)[C@H](O)CO.NC(=O)c1nc(F)cnc1O [Salt A, meglumine salt of 6-fluoro-3-hydroxy-2-pyrazinecarboxamide] | high
